Measurements as given in patent US11834481B1, “Salty taste enhancing peptide derived from dry-cured ham and preparation method thereof” (Hefei University of Technology, priority 2022, dated 2023).

Assay: sensory evaluation of purified components for salty taste enhancing effect
Conditions: components purified from Jinhua dry-cured ham crude peptides (Sephadex G-15, DEAE anion column); sensory evaluation with electronic tongue-assisted analysis
Protocol: The crude polypeptides obtained in S2 were dissolved in pure water, filtered by 0.22 μm of aqueous phase membrane, and then loaded onto a Sephadex G-15 gel filtration column (3.0×200 cm) for purification at 25° C. Specific chromatographic parameters: the sample mass concentration was 40 mg/mL; the injection volume was 200 μL; the eluent was 0.01 M of hydrochloric acid buffer solution at a flow rate of 0.5 mL/min, the primary UV ultraviolet detection wavelength was 214 nm, and the secondary UV ultraviolet detection wavelength was 250 nm. All purified components were subject to a sensory evaluation according to their respective chromatographic peaks. […]

## Asp-Leu [Asp-Leu (DL)]
  salty taste enhancing effect: optimal salty taste enhancing effect
